# Laboratory results published in the COVID Moonshot data (paper PMC7615835).
# Several values for one entry are separate records, joined by “and”; a condition that tells them apart may be missing. Equal values may be shown once.
# Target: SARS-CoV-2 Main Protease (SARS-CoV-2) (UniProt P0DTD1)
row,SMILES,IC50
1,Cc1nn(-c2cc(Cl)cc(CC(=O)Nc3cncc4ccccc34)c2)c(N)c1Br,1.72 µM
2,CC(C)(C)c1ccc(N(C(=O)c2ccco2)C(C(=O)NCCc2cccc(F)c2)c2snc3ccccc23)cc1 (stereo not drawn),5.33 µM
3,Cc1c(Cl)cc(S(=O)(=O)N2CC=C(c3c[nH]c4ncccc34)CC2)cc1[N+](=O)[O-],> 99.5 µM
4,COC1(CS(=O)(=O)N2CC(C(=O)Nc3cncc4cc(S(C)(=O)=O)ccc34)c3cc(Cl)ccc3C2=O)CC1 (stereo not drawn),0.773 µM
5,O=C(CCl)N1CCCN(S(=O)(=O)c2ccc(F)cc2)CC1,44 µM
6,CN(C)C(=O)CNC(=O)C(c1cccnc1)N(C(=O)c1cocn1)c1ccc(C(C)(C)C)cc1 (stereo not drawn),29.2 µM
7,C=CC(=O)N(c1cc(C(C)(C)C)on1)C(C(=O)Nc1cccc(CC)c1)c1cccnc1 (stereo not drawn),> 99 µM
8,O=C(Cc1cc(Cl)cc(Nc2nnc(Cl)cc2Br)c1)Nc1cncc2ccccc12,1.81 µM
9,O=C(Cc1cc(Cl)cc(Nc2ccc([N+](=O)[O-])c3ccccc23)c1)Nc1cncc2ccccc12,2.14 µM
10,O=C(Cc1cc(Cl)cc(Nc2ncc(Br)nc2Cl)c1)Nc1cncc2ccccc12,1.71 µM
11,Cc1ccc2ncc(NC(=O)Cc3cccc(Cl)c3)n2c1,9.01 µM
12,CC(C)Sc1ccccc1Nc1cc(Cl)cc(CC(=O)Nc2cncc3ccccc23)c1,2.01 µM
13,O=C(Cc1cccc(Cl)c1)NC1COCc2ccccc21 (stereo not drawn),69 µM
14,N#Cc1nccn1CCCc1cccc(Cl)c1,> 99.5 µM
15,O=C(Nc1cncc2ccccc12)C1CN(S(=O)(=O)NC2CCC2)Cc2ccc(Cl)cc21 (stereo not drawn),0.0999 µM and 0.132 µM and 0.127 µM
16,CS(=O)(=O)c1ccc2cncc(NC(=O)C3CNC(=O)c4c(F)cc(F)cc43)c2c1 (stereo not drawn),3.6 µM
17,NC(=O)CN1CCCN(C(=O)CCSc2ccc(F)cc2)CC1,> 99.5 µM
18,O=C(COc1cccc(Cl)c1)Nc1cncc2ccccc12,11.2 µM
19,O=C(Cc1cc(Cl)cc(NCc2cc(F)c(F)c(F)c2)c1)Nc1cncc2ccccc12,3.4 µM
20,NC(=O)c1c(Nc2cc(Cl)cc(CC(=O)Nc3cncc4ccccc34)c2)sc2c1CCCC2,2.43 µM
21,COc1ncc(Nc2cc(Cl)cc(CC(=O)Nc3cncc4ccccc34)c2)cc1Br,1.74 µM
22,COc1cccc(C(NC(=O)Cc2cccc(Cl)c2)c2nc3ccccc3[nH]2)c1 (stereo not drawn),> 99.5 µM
23,Cc1ccc2c(NC(=O)Cc3cccc(Cl)c3)cncc2c1,1.24 µM
24,C=CC(=O)N(c1ccc(C(C)(C)C)cc1)C(C(=O)NCc1ccc(F)cc1)c1cccnc1 (stereo not drawn),23.3 µM
25,CCOC(=O)/C=C/N1CCN(S(=O)(=O)c2ccccc2)CC1,30 µM

row,SMILES,IC50
1,O=C(Cc1cccc(Cl)c1)Nc1cn[nH]c1,> 99.5 µM
2,O=C(CCl)N1CCN(S(=O)(=O)c2c(F)cccc2F)CC1,3.43 µM and 3.14 µM
3,O=C(Cc1cc(Cl)cc(Nc2cc(F)c(F)cc2Br)c1)Nc1cncc2ccccc12,2.16 µM
4,O=C(Cc1cc(Cl)cc(Cl)c1)Nc1cncc2ccccc12,1.37 µM
5,O=C(NCCc1cccc(F)c1)C(c1cccnc1)N(C(=O)c1cocn1)C1CCCCCC1 (stereo not drawn),> 99.5 µM
6,CC(C)(C)c1ccc(N(C(=O)c2ccco2)C(C(=O)N2CCOCC2)c2cccnc2)cc1 (stereo not drawn),41 µM
7,O=C(Nc1cncc2ccccc12)[C@@H]1COc2ccc(Cl)cc2C1 (stereo in doubt),> 99.5 µM
8,O=C(Cc1cccc(Cl)c1)Nc1cncc2c(Cl)cccc12,> 99.5 µM
9,O=C(Cc1cc(Cl)cc(NCCCN2CCS(=O)(=O)CC2)c1)Nc1cncc2ccccc12,1.92 µM
10,CC(C)(C)c1ccc(N(C(=O)c2cc(C3(O)COC3)on2)C(C(=O)NCCc2cccc(F)c2)c2cccnc2)cc1 (stereo not drawn),26.2 µM
11,O=C(Cc1cccc(Cl)c1)Nc1cncc2nc[nH]c12,13.3 µM
12,COc1ccccc1OCCC(=O)Nc1cncc2ccccc12,93.6 µM and > 99.5 µM
13,O=C1NC[C@@H](C(=O)Nc2cncc3ccccc23)c2cc(Cl)ccc21 (stereo in doubt),99.3 µM
14,CN1CCN(c2ccc(Nc3cc(Cl)cc(CC(=O)Nc4cncc5ccccc45)c3)cc2F)CC1,2.8 µM
15,C[C@H](C/C=C/C(C)(C)O)[C@H]1CC[C@@]2(C)[C@@H]3C=C[C@]45OC(O)[C@@]3(CC[C@]12C)[C@@H]4CC[C@H](O[C@@H]1O[C@H](CO)[C@@H](O)[C@H](O)[C@H]1O)C5(C)C (stereo in doubt),> 99.5 µM
16,CC(C)(C)c1ccc(N(C(=O)c2cnc[nH]2)C(C(=O)NCCc2cccc(F)c2)c2cc(=O)[nH]c3ccccc23)cc1 (stereo not drawn),1.31 µM
17,Cc1nc2cc(C(=O)NNc3ccnc4cccnc34)ccc2o1,> 99.5 µM
18,Cn1nc2c(c1C(=O)N(c1ccc(C(C)(C)C)cc1)C(C(=O)NCCc1cccc(F)c1)c1cccnc1)CS(=O)(=O)CC2 (stereo not drawn),> 99.5 µM
19,Cn1cnnc1-c1cccc(NS(=O)(=O)c2c(Cl)nc3sccn23)c1,> 99.5 µM
20,O=C(NCCc1cccc(F)c1)C(c1cccnc1)N(C(=O)c1cocn1)c1ccc(N2CCCC2=O)cc1 (stereo not drawn),76.6 µM
21,Cn1c(C(NC(=O)Cc2cc3ccccc3[nH]2)c2cccc(Cl)c2)nc2ccccc21 (stereo not drawn),> 99.5 µM
22,O=C(Cc1cc(Cl)cc(NCc2ccc(I)cc2)c1)Nc1cncc2ccccc12,4.37 µM
23,O=C(NCCc1cccc(F)c1)C(c1cccnc1)N(C(=O)c1cocn1)c1ccc(Cn2cccn2)cc1 (stereo not drawn),8.34 µM
24,CC(C)(C)NC(=O)CN1CC(C(=O)Nc2cncc3cc(F)ccc23)c2cc(Cl)ccc2C1=O (stereo not drawn),1.01 µM
25,CCc1ccc2c(c1)C(=O)C(=O)N2CC(=O)O,> 99.5 µM

row,SMILES,IC50
1,Cc1ccncc1N1CCN(c2cccc(Cl)c2)C1=O,81.7 µM
2,C=CC(=O)N(c1ccc(C(C)(C)C)cc1)[C@@H](C(=O)NCCc1cccc(F)c1)c1cccnc1 (stereo in doubt),86.4 µM
3,CC(C(=O)OC1CCCN(Cc2cccc(C(F)(F)F)c2)C1=O)n1cnc(C#N)n1 (stereo not drawn),8.45 µM and 10.2 µM
4,COc1ccc(N(C(C)=O)c2cc(Cl)cc(CC(=O)Nc3cncc4ccccc34)c2)cc1N,2.71 µM
5,O=C(Nc1ccc(-c2nnc[nH]2)cc1)c1cccc(F)c1F,> 99.5 µM
6,CC(C)n1nccc1C(=O)N1Cc2ccc(Cl)cc2C2(CCN(c3cncc4ccccc34)C2=O)C1 (stereo not drawn),0.268 µM
7,O=C(NCCc1cccc(F)c1)C(c1cccnc1)N(Cc1c(O)ccc2c1CCCC2)C(=O)c1ccco1 (stereo not drawn),12.1 µM
8,O=[N+]([O-])c1cnc(Sc2nnc(-c3ccco3)n2-c2ccc(OCc3ccccc3)cc2)s1,7.3 µM
9,O=C(Cc1cc(Cl)cc(N2CCN(C(=O)[C@@H]3COc4ccccc4O3)CC2)c1)Nc1cncc2ccccc12 (stereo in doubt),2.74 µM
10,Cc1ccncc1NC(=O)CN1CCC(C)CC1,49.2 µM
11,COc1ccccc1OCCNC(=O)c1cc(=O)ccn1C,> 99.5 µM
12,O=C(Cc1cc(Cl)cc(Nc2ccc(Br)cc2O)c1)Nc1cncc2ccccc12,3.89 µM
13,CC(C)c1ccncc1NC(=O)Cc1cccc(Cl)c1,19.5 µM
14,O=C(Cc1cc(Cl)cc(Nc2ccc(Cl)c(Cl)c2)c1)Nc1cncc2ccccc12,2.28 µM
15,Nc1ccc2c(c1)C(=O)N(c1cc(Cl)cc(CC(=O)Nc3cncc4ccccc34)c1)C2=O,1.86 µM
16,CN(C)C(=O)CN1CCc2ccc(Cl)cc2C1C(=O)Nc1cncc2ccccc12 (stereo not drawn),1.54 µM
17,O=C(Nc1cncc2ccccc12)C1CN(C2CCNC2=O)C(=O)c2ccc(Cl)cc21 (stereo not drawn),0.717 µM
18,CC(C)CN1CC(C)(C(=O)Nc2cncc3ccccc23)c2cc(Cl)ccc2S1(=O)=O (stereo not drawn),0.153 µM
19,COCc1ccc2cncc(NC(=O)Cc3cccc(Cl)c3)c2c1,2.21 µM
20,O=C(Cc1cc(Cl)cc(Nc2ccc(C(F)(F)F)cc2[N+](=O)[O-])c1)Nc1cncc2ccccc12,2.24 µM
21,O=C(CCl)N1CCN(S(=O)(=O)c2ccsc2)CC1,1.63 µM
22,Cn1ncc2cncc(NC(=O)C3CN(S(=O)(=O)CC4(C#N)CC4)Cc4ccc(Cl)cc43)c21 (stereo not drawn),2.53 µM
23,O=C(Cc1cc(Cl)cc(Nc2ccccc2-c2ccccc2)c1)Nc1cncc2ccccc12,1.86 µM
24,CCOC(=O)c1ncoc1CNC(=O)C(c1cccnc1)N(C(=O)c1cocn1)c1ccc(C(C)(C)C)cc1 (stereo not drawn),5.88 µM
25,O=C(Cc1cc(Cl)cc(Nc2cc(Cl)cc(Cl)c2O)c1)Nc1cncc2ccccc12,9.19 µM

row,SMILES,IC50
1,O=C(NCCc1cccc(F)c1)C(c1cccnc1)N(C(=O)c1cnc[nH]1)c1ccc(C2COC2)cc1 (stereo not drawn),22.7 µM
2,Cc1nccn1Cc1ccc2c(NC(=O)C3CCOc4ccc(Cl)cc43)cncc2c1 (stereo not drawn),5.32 µM
3,O=C(Nc1cc(=O)[nH]c2ccccc12)C1CCOc2ccc(Cl)cc21 (stereo not drawn),> 99.5 µM
4,O=C(Cc1cc(Cl)cc(OC(F)(F)F)c1)Nc1cncc2ccccc12,1.55 µM
5,Cc1ccccc1CC(=O)Nc1cncc2ccccc12,29.5 µM
6,COc1ccc(N(C(=O)c2ccco2)C(C(=O)NCCc2cccc(F)c2)c2cccnc2)cc1NC(=O)C1CCCCC1 (stereo not drawn),62.7 µM
7,O=C(Cc1cccc(Cl)c1)NC1CC(=O)c2ccccc21 (stereo not drawn),53.8 µM
8,COC1(CS(=O)(=O)N2Cc3ccc(Cl)cc3C(C(=O)Nc3cncc4ccc(C(C)(C)O)cc34)C2)CC1 (stereo not drawn),1.77 µM
9,O=C(NCCc1cccc(F)c1)C(c1cccnc1)N(C(=O)c1ccco1)[C@H]1C[C@H](c2cc(F)cc(F)c2)C1 (stereo partly drawn),> 99.5 µM
10,CS(=O)(=O)Nc1ccc2cncc(NC(=O)C3CN(S(=O)(=O)CC4(C#N)CC4)Cc4ccc(Cl)cc43)c2c1 (stereo not drawn),0.267 µM
11,CS(=O)(=O)Nc1ccc(Cl)cc1C(=O)N1CCC(C2CCNC2)CC1 (stereo not drawn),> 99.5 µM
12,Cc1cc(C(=O)N2CCC(C3CCNC3)CC2)cc(C)c1OC(F)F (stereo not drawn),> 99.5 µM
13,O=C(Cc1cccc(Cl)c1)Nn1nnc2ccccc21,5.8 µM
14,C=CC(=O)N(c1ccc(C(C)(C)C)cc1)C(C(=O)Nc1ccc2c(c1)OCO2)c1cccnc1 (stereo not drawn),36.1 µM
15,OCCn1c(CSc2nc3ccccc3o2)nc2ccc(Cl)cc21,0.327 µM
16,Cn1c(CNCC2(C(=O)Nc3cncc4ccccc34)CCOc3ccc(Cl)cc32)nc2c1c(=O)[nH]c(=O)n2C (stereo not drawn),> 99.5 µM
17,O=C(NCCc1cccc(F)c1)C(c1cccnc1)N(C(=O)c1cocn1)c1cnn(-c2ccccc2)c1 (stereo not drawn),2.95 µM
18,Cc1ccncc1NC(=O)Cc1cc(Cl)cc(-c2cnn(C)c2C(F)F)c1,19.3 µM
19,c1ccc(-c2cc(Sc3nnc(-c4cccs4)o3)n3ncnc3n2)cc1,0.221 µM
20,CS(=O)(=O)CC1(C(=O)Nc2cncc3ccccc23)CCOc2ccc(Cl)cc21 (stereo not drawn),15.6 µM
21,Cc1cc(C)n(C2CCCN(C(=O)c3c[nH]c4ncccc34)C2)n1 (stereo not drawn),> 99.5 µM
22,Cn1c(=O)c2cc(C(=O)N(c3ccc(C(C)(C)C)cc3)C(C(=O)NCCc3cccc(F)c3)c3cccnc3)n(C)c2n(C)c1=O (stereo not drawn),> 99.5 µM
23,O=C(Nc1cncc2ccccc12)C12CC(C1)Oc1ccc(Cl)cc12,56.4 µM
